The values below come from patent publication US20260217765A1, “NOVEL ANTIMICROBIAL PEPTIDE DESIGNED FROM DUCK-DERIVED ANTIMICROBIAL PEPTIDE ANDUSE THEREOF” (INDUSTRY-ACADEMIC COOPERATION FOUNDATION, CHOSUN UNIVERSITY, priority 2023, published 2026).

Peptide text beside a SMILES is read from it.

In one data set the test system is sheep red blood cells. The format is cell-based. The protocol:
To evaluate the cytotoxicity of the peptides prepared in <Example 1>, their hemolytic activity against red blood cells was measured. Hemolysis refers to the rupture of red blood cells with the release of hemoglobin into the surrounding fluid. The cytotoxicity of the novel peptides of the present disclosure was assessed by measuring their hemolytic activity against erythrocytes.
Specifically, sheep red blood cells were diluted with PBS (pH 7.0) to a final concentration of 8%. The peptides dCATH, dCATH-A1, dCATH-A2, dCATH-A3, dCATH-A4, dCATH-A5, dCATH-A6, and dCATH-A7 were each added to the wells at concentrations of 3.13, 6.25, 12.5, 25.0, 50.0, and 100.0 μM/well and reacted at 37° C. for 1 hour. Thereafter, the samples were centrifuged at 1, 000×g, and the absorbance of hemoglobin in the supernatant was measured at 414 nm. As a control for complete cell lysis, 1% Triton X-100 (Sigma, USA) was used and incubated under the same conditions. The absorbance of this sample was set to represent 100% hemolysis, and hemolytic activity (%) for each peptide was calculated using the following Equation 1.
In the above equation, Absorbance A is the absorbance at 414 nm of the reaction solution treated with each peptide, Absorbance B is the absorbance at 414 nm of the PBS-treated reaction solution, and Absorbance C is the absorbance at 414 nm of the reaction solution treated with 1% Triton X-100.

Data set [1] relates to Acinetobacter baumannii isolate 10. Description: In vivo antimicrobial activity, intranasal lung infection, H&E staining. Further details: species or system BALB/c mice. As to conditions: mice intranasally infected with A. baumannii isolate 10, peptide intranasal, day 3. How it is done:
Among the peptides prepared in <Example 1>, dCATH-A7 was selected to evaluate in vivo antimicrobial activity.
Among the antibiotic-resistant strains, Acinetobacter baumannii isolate 10 was selected for the experiment. The bacteria were washed three times with PBS buffer prior to use. After a one-week acclimation period, BALB/c mice (6 weeks old) were intranasally infected with 20 μL of a 1×10^9 CFU/mL bacterial suspension. Following infection, the peptide was prepared at a concentration of 5 mg/mL and administered intranasally. On day 3, lung tissue samples were collected and subjected to hematoxylin and eosin (H&E) staining to assess tissue damage.

Consider `CC[C@H](C)[C@H](NC(=O)[C@H](C)NC(=O)[C@H](CCCCN)NC(=O)[C@H](CCCCN)NC(=O)[C@@H](NC(=O)[C@H](CC(C)C)NC(=O)[C@H](CCC(N)=O)NC(=O)[C@H](C)NC(=O)[C@H](C)NC(=O)[C@H](CCCNC(=N)N)NC(=O)[C@@H](N)CCCCN)C(C)C)C(=O)N[C@@H](CCCCN)C(=O)N[C@@H](CCCCN)C(=O)N[C@@H](Cc1ccc(O)cc1)C(=O)N[C@@H](CCCNC(=N)N)C(=O)N[C@@H](C)C(=O)N[C@@H](Cc1c[nH]c2ccccc12)C(=O)N[C@@H](CCCCN)C(=O)N[C@@H](CCCNC(=N)N)C(=O)N[C@@H](CCCNC(=N)N)C(N)=O` [dCATH-A6] (H-KRAAQLVKKAIKKYRAWKRR-NH2; N-terminus assumed), for which, in the data set on sheep red blood cells, the “hemolytic activity at concentrations corresponding to antimicrobial activity” value is “no hemolytic activity”.

For `CC[C@H](C)[C@H](NC(=O)[C@H](C)NC(=O)[C@H](CCCCN)NC(=O)[C@H](CCCCN)NC(=O)[C@@H](NC(=O)[C@H](CC(C)C)NC(=O)[C@H](CCC(N)=O)NC(=O)[C@H](C)NC(=O)[C@H](C)NC(=O)[C@H](CCCNC(=N)N)NC(=O)[C@@H](N)CCCCN)C(C)C)C(=O)N[C@@H](CCCCN)C(=O)N[C@@H](CCCCN)C(=O)N[C@@H](Cc1ccc(O)cc1)C(=O)N[C@@H](CCCNC(=N)N)C(=O)N[C@@H](C)C(=O)N[C@@H](Cc1c[nH]c2ccccc12)C(=O)N[C@@H](CCCCN)C(N)=O` [dCATH-A7, KRAAQLVKKAIKKYRAWK] (H-KRAAQLVKKAIKKYRAWK-NH2; N-terminus assumed), the “hemolytic activity at concentrations corresponding to antimicrobial activity” value in the data set on sheep red blood cells is on record as “no hemolytic activity”. In addition, the “lung tissue damage (H&E staining)” value in data set [1] is “minimal fibrosis and overall reduced tissue damage”.
